Laboratory results as given in patent USRE47689E1, “Compounds for treating spinal muscular atrophy” (PTC Therapeutics, Inc., priority 2011, dated 2019).

How the values were obtained:
[1] = system: SMN2 minigene (full length SMN2 minigene mRNA containing SMN2 exon 7); test: SMN2 minigene mRNA splicing RT-qPCR assay in cultured cells; assay type: cell-based, human; conditions: Homo sapiens, HEK293-H; HEK293H cells stably transfected with SMN2-A minigene; 24 hours; 7-point concentration curve; 1.5-fold relative to vehicle-treated cells; read-out: EC1.5x for production of full length SMN2 mRNA
Procedure: The reverse transcription-quantitative PCR-based (RT-qPCR) assay is used to quantify the level of the full length SMN2 minigene mRNA containing SMN2 exon 7 in a HEK293H cell line stably transfected with said minigene and treated with a test compound.
Protocol. HEK293H cells stably transfected with the SMN2-A minigene construct described above (10,000 cells/well) are seeded in 200 μL of cell culture medium (DMEM plus 10% FBS, with 200 μg/mL hygromycin) in 96-well flat-bottom plates and the plate is immediately swirled to ensure proper dispersal of cells, forming an even monolayer of cells. Cells are allowed to attach for at least 4-6 hours. […] A solution of test compound (1 μL, 200× in DMSO) is added to each cell-containing well and the plate is incubated for 24 hours in a cell culture incubator (37° C., 5% CO2, 100% relative humidity). 2 replicates are prepared for each test compound concentration. The cells are then lysed in Cells-To-Ct lysis buffer and the lysate is stored at −80° C.
The combination of these three oligonucleotides detects only SMN1 or SMN2 minigenes (RT-qPCR) and will not detect endogenous SMN1 or SMN2 genes.
The SMN forward and reverse primers are used at final concentrations of 0.4 μM.
The SMN2-minigene GAPDH mix (15 μL total volume) is prepared by combining 7.5 μL of 2×RT-PCR buffer, 0.4 μL of 25×RT-PCR enzyme mix, 0.75 μL of 20×GAPDH primer-probe mix, 4.0075 μL of water, 2 μL of 10-fold diluted cell lysate, 0.06 μL of 100 μM SMN forward primer, 0.06 μL of 100 μM SMN reverse primer, and 0.225 μL of 100 μM SMN probe.
PCR is carried out at the following temperatures for the indicated time: Step 1: 48° C. (15 min); Step 2: 95° C. (10 min); Step 3: 95° C. (15 sec); Step 4: 60° C. (1 min); then repeat Steps 3 and 4 for a total of 40 cycles.
Each reaction mixture contains both SMN2-A minigene and GAPDH primers/probe sets (multiplex design), allowing simultaneous measurement of the levels of two transcripts.
Two SMN spliced products are generated from the SMN2 minigene. The first spliced product containing exon 7, corresponding to full length SMN2 mRNA, is called SMN2mini FL. The second one lacking exon 7 is called SMN2mini Δ7.
The amplification efficiency E is calculated from the slope of the amplification curve for SMN2mini FL and GAPDH individually. The abundances of SMN2mini FL and GAPDH are then calculated as […], where Ct is the threshold value for each amplicon. The abundance of SMN2mini FL is normalized to GAPDH abundance. The normalized SMN2mini FL abundance from test compound-treated samples is then divided by normalized SMN2mini FL abundance from vehicle-treated cells to determine the level of SMN2 FL mRNA relative to vehicle control.
An EC1.5x for production of full length SMN2 mRNA between >3 μM and ≤30 μM is indicated by one star (*), an EC1.5x between >1 μM and ≤3 μM is indicated by two stars (**), an EC1.5x between >0.3 μM and ≤1 μM is indicated by three stars (***), an EC1.5x between >0.1 μM and ≤0.3 μM is indicated by four stars (****) and an EC1.5x≤0.1 μM is indicated by five stars (*****).

[2] = system: Smn protein; test: Smn protein assay in cultured cells (SMN HTRF); assay type: cell-based, human; conditions: 48 hours; for EC1.5x (concentration giving 1.5-fold Smn protein increase): SMA Type 1 patient fibroblast cells (GM03813), 7-point concentration curve, SMN HTRF, concentration producing 1.5 times Smn protein vs DMSO vehicle control, read-out: EC1.5x for Smn protein expression; for maximum fold (Fold) increase of Smn protein: SMA patient fibroblast cells, 7-point concentration data, fold increase relative to vehicle control (SMN HTRF)
Procedure: The SMN HTRF (homogeneous time resolved fluorescence) assay is used to quantify the level of Smn protein in SMA patient fibroblast cells treated with test compounds.
Protocol. Cells are thawed and cultured in DMEM-10% FBS for 72 hours. Cells are trypsinized, counted and resuspended to a concentration of 25,000 cells/mL in DMEM-10% FBS. […] 1 μL of test compound solution is transferred to cell-containing wells and cells are incubated for 48 hours in a cell culture incubator (37° C., 5% CO2, 100% relative humidity). Triplicate samples are set up for each test compound concentration. After 48 hours, the supernatant is removed from the wells and 25 μL of the RIPA lysis buffer, containing protease inhibitors, is added to the wells and incubated with shaking at room temperature for 1 hour. 25 μL of the diluent is added and then 35 μL of the resulting lysate is transferred to a 384-well plate, where each well contains 5 μL of the antibody solution (1:100 dilution of anti-SMN d2 and anti-SMN kryptate in SMN reconstitution buffer). The plate is centrifuged for 1 minute to bring the solution to the bottom of the wells, then incubated overnight at room temperature. Fluorescence for each well of the plate at 665 nm and 620 nm is measured on an EnVision multilabel plate reader (Perkin-Elmer).
The normalized fluorescence signal is calculated for each sample, Blank and vehicle control well by dividing the signal at 665 nm by the signal at 620 nm. Normalizing the signal accounts for possible fluorescence quenching due to the matrix effect of the lysate. The ΔF value (a measurement of Smn protein abundance) for each sample well is calculated by subtracting the normalized average fluorescence for the Blank control wells from the normalized fluorescence for each sample well and then dividing this difference by the normalized average fluorescence for the Blank control wells. The resulting ΔF value for each sample well represents the Smn protein abundance from test compound-treated samples. The ΔF value for each sample well is divided by the ΔF value for the vehicle control wells to calculate the fold increase in Smn protein abundance relative to the vehicle control.
An EC1.5x for Smn protein expression between >3 μM and ≤10 μM is indicated by one star (*), an EC1.5x between >1 and ≤3 μM is indicated by two stars (**), an EC1.5x between >0.3 μM and ≤1 μM is indicated by three stars (***) and an EC1.5x≤0.3 μM is indicated by four stars (****).

Structure (SMILES) | EC (1.5-fold) [1] | EC1.5x (concentration giving 1.5-fold Smn protein increase) [2] | maximum fold (Fold) increase of Smn protein [2]
Cc1cn2cc(-c3cc4ccc(N5CCN6CCC[C@H]6C5)cc4oc3=O)cc(F)c2n1 [Compound 983, 3-(8-fluoro-2-methylimidazo[1,2-a]pyridin-6-yl)-7-[(8aS)-hexahydropyrrolo[1,2-a]pyrazin-2(1H)-yl]-2H-chromen-2-one] | < 0.1 µM | < 300 nM | ***** (fold increase >1.65)
Cc1nc2ccc(-c3cc4ccc(N5CCN[C@@H](C)C5)cc4oc3=O)cc2s1 [Compound 770, 3-(2-methyl-1,3-benzothiazol-6-yl)-7-[(3S)-3-methylpiperazin-1-yl]-2H-chromen-2-one] | < 0.1 µM | < 300 nM | **** (fold increase between >1.5 and ≤1.65)
Cc1cc2oc(-c3cc4ccc(N5CCN(C)CC5)cc4oc3=O)cc2c(C)n1 [Compound 832, 3-(4,6-dimethylfuro[3,2-c]pyridin-2-yl)-7-(4-methylpiperazin-1-yl)-2H-chromen-2-one] | 1 to 3 µM | – | * (maximum fold increase of ≤1.2)
Cc1cccn2cc(-c3cc4ccc(N5C[C@H](C)NC[C@H]5C)cc4oc3=O)nc12 [Compound 166, 7-[(2R,5S)-2,5-dimethylpiperazin-1-yl]-3-(8-methylimidazo[1,2-a]pyridin-2-yl)-2H-chromen-2-one] | 1 to 3 µM | – | ** (fold increase between >1.2 and ≤1.35)
Cc1cn2cc(-c3cc4ccc(N5CCN[C@@H](C)C5)cc4oc3=O)nc2cn1 [Compound 569, 3-(6-methylimidazo[1,2-a]pyrazin-2-yl)-7-[(3S)-3-methylpiperazin-1-yl]-2H-chromen-2-one] | < 0.1 µM | < 300 nM | ***** (fold increase >1.65)
Cl.O=c1oc2cc(N3CCNCC3)ccc2cc1-c1ccnc(C2CC2)n1 [Compound 278, 3-(2-cyclopropylpyrimidin-4-yl)-7-(piperazin-1-yl)-2H-chromen-2-one hydrochloride] | 0.3 to 1 µM | – | * (maximum fold increase of ≤1.2)
O=c1oc2cc(N3CCNCC3)ccc2cc1-c1cc(C(F)(F)F)ccn1 [Compound 76, 7-(piperazin-1-yl)-3-[4-(trifluoromethyl)pyridin-2-yl]-2H-chromen-2-one] | 1 to 3 µM | – | * (maximum fold increase of ≤1.2)
Cc1nccn2cc(-c3cc4ccc(N5CCN[C@@H](C)C5)cc4oc3=O)nc12 [Compound 573, 3-(8-methylimidazo[1,2-a]pyrazin-2-yl)-7-[(3S)-3-methylpiperazin-1-yl]-2H-chromen-2-one] | 0.3 to 1 µM | < 300 nM | **** (fold increase between >1.5 and ≤1.65)
Cc1cn2cc(-c3cc4ccc(C5CCN(C6COC6)CC5)cc4oc3=O)nc2cn1 [Compound 878, 3-(6-methylimidazo[1,2-a]pyrazin-2-yl)-7-[1-(oxetan-3-yl)piperidin-4-yl]-2H-chromen-2-one] | < 0.1 µM | 300 to 1000 nM | ***** (fold increase >1.65)
CCc1nc(C)cn2cc(-c3cc4ccc(N5CCNCC5)cc4oc3=O)nc12 [Compound 824, 3-(8-ethyl-6-methylimidazo[1,2-a]pyrazin-2-yl)-7-(piperazin-1-yl)-2H-chromen-2-one] | < 0.1 µM | < 300 nM | **** (fold increase between >1.5 and ≤1.65)
CCN1CCN(c2ccc3cc(-c4cn5cc(C)nc(C)c5n4)c(=O)oc3c2)C[C@@H]1C(C)C [Compound 810, 3-(6,8-dimethylimidazo[1,2-a]pyrazin-2-yl)-7-[(3S)-4-ethyl-3-(propan-2-yl)piperazin-1-yl]-2H-chromen-2-one] | 0.3 to 1 µM | 1000 to 3000 nM | **** (fold increase between >1.5 and ≤1.65)
O=C(O)C(F)(F)F.O=c1oc2cc(N3CCNCC3)ccc2cc1-c1nc2c(C(F)(F)F)cccc2o1 [Compound 1, 7-(piperazin-1-yl)-3[4-(trifluoromethyl)-1,3-benzoxazol-2-yl]-2H-chromen-2-one trifluoroacetate] | 0.3 to 1 µM | – | * (maximum fold increase of ≤1.2)
Cc1cn2cc(-c3cc4ccc(N5CCN[C@@H](C(C)C)C5)cc4oc3=O)nc2c(C)n1 [Compound 808, 3-(6,8-dimethylimidazo[1,2-a]pyrazin-2-yl)-7-[(3S)-3-(propan-2-yl)piperazin-1-yl]-2H-chromen-2-one] | < 0.1 µM | < 300 nM | **** (fold increase between >1.5 and ≤1.65)
Cc1cn2cc(-c3cc4ccc(N5CCN[C@H](C)C5)cc4oc3=O)nc2c(C)n1 [Cpd 536, 3-(6,8-dimethylimidazo[1,2-a]pyrazin-2-yl)-7-[(3R)-3-methylpiperazin-1-yl]-2H-chromen-2-one] | < 0.1 µM | < 300 nM | ***** (fold increase >1.65)
Cc1cn2cc(-c3cc4ccc(N5CCNCC5)cc4oc3=O)ccc2n1 [Compound 677, 3-(2-methylimidazo[1,2-a]pyridin-6-yl)-7-(piperazin-1-yl)-2H-chromen-2-one] | < 0.1 µM | < 300 nM | **** (fold increase between >1.5 and ≤1.65)
Cc1cn2cc(-c3cc4ccc(N5CCNCC5)cc4oc3=O)nc2c(C)n1 [Compound 515, 3-(6,8-dimethylimidazo[1,2-a]pyrazin-2-yl)-7-(piperazin-1-yl)-2H-chromen-2-one] | < 0.1 µM | < 300 nM | ***** (fold increase >1.65)
